In test [1] the target is T1, ΔF508-CFTR (Homo sapiens, UniProt P13569, DEL508-508).
T1 construct: host or cells: CFBE41o-, doxycycline-inducible
As to the kind of experiment: CFTR cell surface levels using HRP-tagged ΔF508-CFTR expressing CFBE cells, intrinsic corrector capacity. It is filed as cell-based. Conditions: for pEC50: read-out: EC50. The essentials: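 Here the cells express ΔF508-CFTR with horseradish peroxidase inserted in extracellular loop 4, so only rescued channel at the surface gives luminescent signal. Compounds act on their own, 20 h at the reduced temperature of 33 °C; values are percent activity relative to DMSO and a 3 μM corrector.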

The target in test [2] is T1, ΔF508-CFTR. Put plainly: CFTR cell surface levels using HRP-tagged ΔF508-CFTR expressing CFBE cells, in the presence of a co-corrector. The conditions noted are these: HRP-tagged ΔF508-CFTR expressing CFBE cells, in the presence of 3 μM co-corrector; for pEC50: read-out: EC50. Type of test: cell-based. The essentials: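 Cells were seeded with 0.5 μg/mL doxycycline and held 68 h at 37 °C. Test compounds plus 3 μM co-corrector (final 0.1% DMSO) were then added for 20 h at 33 °C. Washed cells received HRP substrate, and luminescence was normalized between DMSO and 3 μM co-corrector controls.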

Setting [3] is: HRP-tagged ΔF508-CFTR expressing CFBE cells, intrinsic corrector capacity (no co-corrector), 33° C., 20 hours.
Where [4] appears, read: HRP-tagged ΔF508-CFTR CFBE41o- cells, compounds alone (intrinsic corrector capacity), 20 hours at 33° C., positive control 3 μM corrector.
Setting [5] is: HRP-tagged ΔF508-CFTR CFBE41o- cells, compounds alone (intrinsic corrector capacity), 20 hours at 33° C.
[6] abbreviates: HRP-tagged ΔF508-CFTR CFBE cells, compound alone (intrinsic corrector capacity), 20 hours at 33° C.

Structures are written as SMILES. pEC50: −log10 of the molar value.

T1 sequence (P13569 with tags, fused parts or gaps DEL508-508): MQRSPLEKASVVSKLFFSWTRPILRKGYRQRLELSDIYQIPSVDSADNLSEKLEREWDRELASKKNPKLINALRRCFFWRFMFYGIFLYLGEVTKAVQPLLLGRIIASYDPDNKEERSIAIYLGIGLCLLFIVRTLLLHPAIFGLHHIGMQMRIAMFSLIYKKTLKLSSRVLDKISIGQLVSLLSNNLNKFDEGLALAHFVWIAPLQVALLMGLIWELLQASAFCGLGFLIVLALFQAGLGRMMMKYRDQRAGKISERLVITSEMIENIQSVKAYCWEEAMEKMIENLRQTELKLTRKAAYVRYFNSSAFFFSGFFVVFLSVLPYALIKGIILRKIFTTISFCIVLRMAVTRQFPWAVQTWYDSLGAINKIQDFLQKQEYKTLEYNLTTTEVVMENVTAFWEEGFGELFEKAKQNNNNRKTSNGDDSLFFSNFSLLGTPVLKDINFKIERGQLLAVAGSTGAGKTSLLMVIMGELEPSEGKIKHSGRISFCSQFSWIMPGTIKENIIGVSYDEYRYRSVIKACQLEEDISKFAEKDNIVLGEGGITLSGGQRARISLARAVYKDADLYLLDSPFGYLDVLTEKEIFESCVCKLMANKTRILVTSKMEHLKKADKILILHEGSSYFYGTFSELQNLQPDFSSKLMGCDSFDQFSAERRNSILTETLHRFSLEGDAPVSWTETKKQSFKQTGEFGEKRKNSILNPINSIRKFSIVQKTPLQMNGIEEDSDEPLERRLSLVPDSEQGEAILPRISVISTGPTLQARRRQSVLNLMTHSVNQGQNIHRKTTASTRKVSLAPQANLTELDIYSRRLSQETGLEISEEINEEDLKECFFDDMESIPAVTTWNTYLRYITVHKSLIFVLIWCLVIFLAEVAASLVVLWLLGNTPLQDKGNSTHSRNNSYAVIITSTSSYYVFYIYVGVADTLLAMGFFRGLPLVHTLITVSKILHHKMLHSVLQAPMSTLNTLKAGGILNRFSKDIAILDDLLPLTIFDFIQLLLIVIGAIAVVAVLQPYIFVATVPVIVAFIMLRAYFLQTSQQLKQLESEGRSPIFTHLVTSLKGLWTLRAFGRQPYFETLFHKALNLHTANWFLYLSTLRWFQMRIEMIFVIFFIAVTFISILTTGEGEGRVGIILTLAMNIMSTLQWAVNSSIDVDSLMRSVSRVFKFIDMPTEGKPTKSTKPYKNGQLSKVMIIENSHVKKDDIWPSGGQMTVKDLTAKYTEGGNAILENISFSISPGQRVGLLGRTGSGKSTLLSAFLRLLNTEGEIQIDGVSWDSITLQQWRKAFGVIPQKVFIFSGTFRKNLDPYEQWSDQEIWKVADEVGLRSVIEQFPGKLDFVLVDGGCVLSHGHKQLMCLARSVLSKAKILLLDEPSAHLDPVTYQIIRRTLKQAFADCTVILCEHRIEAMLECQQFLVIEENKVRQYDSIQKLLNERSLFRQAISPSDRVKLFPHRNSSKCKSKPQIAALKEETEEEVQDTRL

As to `O=C(O)c1cc(N2CCC(N3CCOCC3)CC2)c2c(C3CCC3)nn(-c3ccc(OC(F)(F)F)cc3)c2n1` [compound 909, 3-cyclobutyl-4-[4-(morpholin-4-yl)piperidin-1-yl]-1-[4-(trifluoromethoxy)phenyl]-1H-pyrazolo[3,4-b]pyridine-6-carboxylic acid], the figures for the “% Activation” value on ΔF508-CFTR [1] (setting [3]) and at ΔF508-CFTR [2] were 277.7% and 498.4%, respectively. In addition, the pEC50 (in general, the EC50 on a negative log10 scale, so that one unit is a factor of ten) at ΔF508-CFTR [1] (setting [3]) is 6.87; on ΔF508-CFTR [2], 7.25.
Consider `O=C(O)c1cc(OC2CC3(COC3)C2)c2c(C3CCC3)nn(-c3ccccc3)c2n1` [compound 495, 3-cyclobutyl-4-[(2-oxaspiro[3.3]heptan-6-yl)oxy]-1-phenyl-1H-pyrazolo[3,4-b]pyridine-6-carboxylic acid], for which the “% Activation” value came to 95.96% on ΔF508-CFTR [1] (setting [3]) and 235.15% on ΔF508-CFTR [2]. Also, the negative logarithm of the EC50 (pEC50) on ΔF508-CFTR [1] (setting [3]) is 5.95; on ΔF508-CFTR [2] it was 6.51.
For `O=C(O)c1cc(N2CC3(CCC3)C2)c2c(C3CCC3)nn(-c3ccccc3)c2n1` [compound 426, 4-(2-azaspiro[3.3]heptan-2-yl)-3-cyclobutyl-1-phenyl-1H-pyrazolo[3,4-b]pyridine-6-carboxylic acid], in that order: 76.06%, 253.5%, 6.00 and 6.05.
Turning to `Cc1nn(-c2ccccc2)c2nc(C(=O)O)cc(OCC3(F)CCCN(C4COC4)C3)c12` (centres unmarked) [compound 381, 4-{[3-fluoro-1-(oxetan-3-yl)piperidin-3-yl]methoxy}-3-methyl-1-phenyl-1H-pyrazolo[3,4-b]pyridine-6-carboxylic acid], the “% Activation” value at ΔF508-CFTR [1] (setting [4]) was determined as 17.695%; on ΔF508-CFTR [2], 182.9%. The values for the pEC50 at ΔF508-CFTR [1] (setting [5]) and at ΔF508-CFTR [2] were 5.30 and 5.78, respectively.
For `COc1cc(F)cc(-n2nc(C3CCC3)c3c(N4CCC(N5CCOCC5)CC4)cc(C(=O)O)nc32)c1` [compound 913, 3-cyclobutyl-1-(3-fluoro-5-methoxyphenyl)-4-[4-(morpholin-4-yl)piperidin-1-yl]-1H-pyrazolo[3,4-b]pyridine-6-carboxylic acid], on ΔF508-CFTR [1] (setting [6]), the “% Activation” value is on record as 326.3% and the negative logarithm of the EC50 (pEC50) was 5.94. On ΔF508-CFTR [2], the “% Activation” value worked out at 531.4% and the pEC50 was 6.79.
For `Cc1nn(-c2ccccc2)c2nc(C(=O)O)cc(N3CCCN(S(C)(=O)=O)CC3)c12` [compound 320, 4-[4-(methanesulfonyl)-1,4-diazepan-1-yl]-3-methyl-1-phenyl-1H-pyrazolo[3,4-b]pyridine-6-carboxylic acid], the “% Activation” value is 19.37% on ΔF508-CFTR [1] (setting [4]) and 166.3% at ΔF508-CFTR [2]. For the same molecule, the pEC50 was under 5.00 at ΔF508-CFTR [1] (setting [5]) and 5.48 on ΔF508-CFTR [2].
As for `O=C(O)c1cc(N2CCC(N3CCC(F)(F)CC3)CC2)c2c(C3CCC3)nn(-c3ccc(F)cc3)c2n1` [compound 850, 3-cyclobutyl-4-(4,4-difluoro[1,4′-bipiperidin]-1′-yl)-1-(4-fluorophenyl)-1H-pyrazolo[3,4-b]pyridine-6-carboxylic acid], on ΔF508-CFTR [1] (setting [3]), the “% Activation” value stood at 234.4% and the pEC50 is 7.13. Moreover, at ΔF508-CFTR [2], the “% Activation” value was 615.6% and the pEC50 was 7.05.
For the molecule `O=C(O)c1cc(N2CC3(CCCCO3)C2)c2c(C3CCC3)nn(-c3ccccc3)c2n1` [compound 424, 3-cyclobutyl-4-(5-oxa-2-azaspiro[3.5]nonan-2-yl)-1-phenyl-1H-pyrazolo[3,4-b]pyridine-6-carboxylic acid], on ΔF508-CFTR [1] (setting [3]), the “% Activation” value is recorded as 86.32% and the pEC50 was 5.97. At ΔF508-CFTR [2], the “% Activation” value is given as 254.9% and the pEC50 was 6.08.
`CC1CN(c2cc(C(=O)O)nc3c2c(C2CCC2)nn3-c2ccccc2)C1` [compound 440, 3-cyclobutyl-4-(3-methylazetidin-1-yl)-1-phenyl-1H-pyrazolo[3,4-b]pyridine-6-carboxylic acid]: at ΔF508-CFTR [1] (setting [3]), the “% Activation” value was found to be 104.7% and the pEC50 was 5.72. Also, on ΔF508-CFTR [2], the “% Activation” value was determined as 308.95% and the pEC50 was 5.71.
With `O=C(O)c1cc(N2CCC([C@@H](F)CO)CC2)c2c(C3CCC3)nn(-c3ccccc3)c2n1` [compound 458, 3-cyclobutyl-4-{4-[(1R)-1-fluoro-2-hydroxyethyl]piperidin-1-yl}-1-phenyl-1H-pyrazolo[3,4-b]pyridine-6-carboxylic acid], the “% Activation” value amounted to 216.4% on ΔF508-CFTR [1] (setting [3]) and 399.6% on ΔF508-CFTR [2]. The pEC50 on ΔF508-CFTR [1] (setting [3]) is 6.31; on ΔF508-CFTR [2], 6.56.
Take `O=C(O)c1cc(N2CCCCC2)c2c(C3CCC3)nn(-c3ccccc3)c2n1` [compound 408, 3-cyclobutyl-1-phenyl-4-(piperidin-1-yl)-1H-pyrazolo[3,4-b]pyridine-6-carboxylic acid]: on ΔF508-CFTR [1] (setting [3]), the “% Activation” value came to 141.15% and the pEC50 is 6.03. In addition, on ΔF508-CFTR [2], the “% Activation” value is 346.95% and the pEC50 is 6.21.
Take `CC(C)(C)c1nn(C2CCCC2)c2nc(C(=O)O)cc(-c3cnc(N4CCOCC4)nc3)c12` [compound 100, 3-tert-butyl-1-cyclopentyl-4-[2-(morpholin-4-yl)pyrimidin-5-yl]-1H-pyrazolo[3,4-b]pyridine-6-carboxylic acid]: the “% Activation” value on ΔF508-CFTR [1] (setting [4]) is on record as 115.7%; on ΔF508-CFTR [2] it was 310%. Also, the pEC50 on ΔF508-CFTR [1] (setting [5]) is 6.01; on ΔF508-CFTR [2], 6.34.
In the case of `CO[C@@H]1CCN(c2cc(C(=O)O)nc3c2c(C2CCC2)nn3-c2ccccc2)C1` [compound 522, 3-cyclobutyl-4-[(3R)-3-methoxypyrrolidin-1-yl]-1-phenyl-1H-pyrazolo[3,4-b]pyridine-6-carboxylic acid], the figures for the “% Activation” value at ΔF508-CFTR [1] (setting [3]) and at ΔF508-CFTR [2] were 114% and 294.1%, respectively. The pEC50 was 6.32 on ΔF508-CFTR [1] (setting [3]) and 5.97 on ΔF508-CFTR [2].
As to `O=C(O)c1cc(N2CC[C@@H](F)C2)c2c(C3CCC3)nn(-c3ccccc3)c2n1` [compound 541, 3-cyclobutyl-4-[(3R)-3-fluoropyrrolidin-1-yl]-1-phenyl-1H-pyrazolo[3,4-b]pyridine-6-carboxylic acid], on ΔF508-CFTR [1] (setting [3]), the “% Activation” value is listed as 120.7% and the negative-log EC50 (pEC50) was 6.01. In addition, at ΔF508-CFTR [2], the “% Activation” value worked out at 287.85% and the pEC50 was 6.10.
Regarding `Cc1cc(N2CCN(c3cc(C(=O)O)nc4c3c(C3CCC3)nn4C3CCCCC3)CC2)ccn1` [compound 864, 3-cyclobutyl-1-cyclohexyl-4-[4-(2-methylpyridin-4-yl)piperazin-1-yl]-1H-pyrazolo[3,4-b]pyridine-6-carboxylic acid], the “% Activation” value on ΔF508-CFTR [1] (setting [3]) is listed as 337.7%; on ΔF508-CFTR [2], 458.6%. Besides, the pEC50 is 6.00 on ΔF508-CFTR [1] (setting [3]) and 6.98 at ΔF508-CFTR [2].
As to `Cc1nn(-c2ccccc2)c2nc(C(=O)O)cc(-c3ccc(N4CCC(O)C4)cc3)c12` (centres unmarked) [compound 153, 4-[4-(3-hydroxypyrrolidin-1-yl)phenyl]-3-methyl-1-phenyl-1H-pyrazolo[3,4-b]pyridine-6-carboxylic acid], the “% Activation” value turned out to be 198.45% at ΔF508-CFTR [1] (setting [4]) and 386.85% on ΔF508-CFTR [2]. For the same molecule, the figures for the pEC50 on ΔF508-CFTR [1] (setting [5]) and on ΔF508-CFTR [2] were 5.82 and 5.92, respectively.
For `CC(C)c1nn(-c2cncc(N3CCOCC3)c2)c2nc(C(=O)O)cc(-c3ccc(N4CCOCC4)cc3)c12` [compound 211, 4-[4-(morpholin-4-yl)phenyl]-1-[5-(morpholin-4-yl)pyridin-3-yl]-3-(propan-2-yl)-1H-pyrazolo[3,4-b]pyridine-6-carboxylic acid], the “% Activation” value on ΔF508-CFTR [1] (setting [4]) was 94.07%; on ΔF508-CFTR [2] it was 289.75%. The values for the pEC50 on ΔF508-CFTR [1] (setting [5]) and at ΔF508-CFTR [2] were 5.66 and 5.96, respectively.
As to `CC(C)c1nn(-c2ccc(F)cc2)c2nc(C(=O)O)cc(N3CCC(CO)CC3)c12` [compound 394, 1-(4-fluorophenyl)-4-[4-(hydroxymethyl)piperidin-1-yl]-3-(propan-2-yl)-1H-pyrazolo[3,4-b]pyridine-6-carboxylic acid], the “% Activation” value on ΔF508-CFTR [1] (setting [4]) is given as 235.1%; at ΔF508-CFTR [2], 392.57%. In addition, the pEC50 is 5.83 at ΔF508-CFTR [1] (setting [5]) and 6.17 at ΔF508-CFTR [2].
On to `CC1(COc2cc(C(=O)O)nc3c2c(C2CCC2)nn3-c2ccccc2)CC1` [compound 630, 3-cyclobutyl-4-[(1-methylcyclopropyl)methoxy]-1-phenyl-1H-pyrazolo[3,4-b]pyridine-6-carboxylic acid], for which, on ΔF508-CFTR [1] (setting [3]), the “% Activation” value is 136.15% and the pEC50 was 6.51. In addition, on ΔF508-CFTR [2], the “% Activation” value turned out to be 323.7% and the negative-log EC50 (pEC50) was 6.59.
Consider `O=C(O)c1cc(OC2CN(C3CCCCC3)C2)c2c(C3CCC3)nn(-c3ccccc3)c2n1` [compound 599, 3-cyclobutyl-4-[(1-cyclohexylazetidin-3-yl)oxy]-1-phenyl-1H-pyrazolo[3,4-b]pyridine-6-carboxylic acid], for which the “% Activation” value at ΔF508-CFTR [1] (setting [3]) was determined as 81.59%; on ΔF508-CFTR [2], 248.4%. Further, the figures for the negative logarithm of the EC50 (pEC50) on ΔF508-CFTR [1] (setting [3]) and on ΔF508-CFTR [2] were 6.45 and 6.42, respectively.

For the origin of these results see patent US9796711B2, “Substituted pyrazolo[3,4-b]pyridin-6-carboxylic acids and method of use” (AbbVie S.àr.l., priority 2015, dated 2017).
